The term IC50 denotes the concentration that inhibits the measured activity by half.

These results are taken from patent US9546152B2 (MERCK SHARP & DOHME CORP., priority 2012, dated 2017).

The target in assay [1] is T1, human orexin-2 receptor (Homo sapiens (Human), UniProt O43614). In words: radioligand binding assay, orexin-2 receptor. The conditions noted are these: membranes prepared from CHO cells expressing the OX2 receptor; read-out: hOX2R BIND hKi.
Assay [2] has as its target T1, human orexin-2 receptor. In words: FLIPR Ca2+ Flux Assay, orexin-2 receptor. In kind it is cell-based. As to conditions: CHO cells expressing the human orexin-2 receptor; agonist 70 pM Ala-6,12 human orexin-A; read-out: hOX2R FLIPR IC50. Put shortly:
(§1)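 Antagonism read as peak Ca2+ fluorescence (FLIPR, 1 s intervals over 5 min) relative to the 70 pM Ala-6,12 orexin-A response without antagonist. Cells: CHO expressing rat OX1R or human OX2R, Fluo-4AM-loaded; HBSS/20 mM HEPES/0.1% BSA/2.5 mM probenecid, pH 7.4.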
Background: A change in cytosolic calcium serves as a functional read-out for many receptors and channels.

The target in a further assay is rat orexin-1 receptor (Rattus norvegicus (Rat), UniProt P56718). In words: FLIPR Ca2+ Flux Assay, orexin-1 receptor. As to conditions: CHO cells expressing the rat orexin-1 receptor; agonist 70 pM Ala-6,12 human orexin-A; read-out: hOX1R FLIPR IC50. The assay is classed as cell-based. In outline:
as §1

T1 sequence (O43614 whole entry): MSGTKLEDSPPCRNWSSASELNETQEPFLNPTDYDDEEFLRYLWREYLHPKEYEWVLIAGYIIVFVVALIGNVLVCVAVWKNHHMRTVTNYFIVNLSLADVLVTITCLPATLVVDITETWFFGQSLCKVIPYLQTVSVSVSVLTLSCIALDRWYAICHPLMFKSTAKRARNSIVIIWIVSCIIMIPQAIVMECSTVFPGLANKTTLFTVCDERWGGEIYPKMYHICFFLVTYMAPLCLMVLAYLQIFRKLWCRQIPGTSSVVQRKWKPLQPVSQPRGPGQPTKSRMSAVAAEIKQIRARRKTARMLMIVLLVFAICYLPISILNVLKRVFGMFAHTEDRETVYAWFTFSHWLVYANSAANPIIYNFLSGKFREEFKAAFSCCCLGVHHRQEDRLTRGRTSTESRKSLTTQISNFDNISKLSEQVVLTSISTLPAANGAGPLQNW
Chain of rat orexin-1 receptor (P56718 whole entry): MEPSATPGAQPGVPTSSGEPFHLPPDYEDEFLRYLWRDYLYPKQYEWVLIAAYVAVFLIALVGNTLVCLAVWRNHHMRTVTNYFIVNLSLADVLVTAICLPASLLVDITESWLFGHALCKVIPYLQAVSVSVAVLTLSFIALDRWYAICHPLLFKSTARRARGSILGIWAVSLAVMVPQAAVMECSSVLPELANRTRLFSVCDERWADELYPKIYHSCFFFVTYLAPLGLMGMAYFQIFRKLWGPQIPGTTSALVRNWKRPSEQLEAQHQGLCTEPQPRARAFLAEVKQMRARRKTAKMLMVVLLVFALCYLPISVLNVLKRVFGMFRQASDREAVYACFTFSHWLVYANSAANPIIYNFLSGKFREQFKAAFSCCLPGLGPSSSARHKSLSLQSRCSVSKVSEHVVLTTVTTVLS

In the case of `COc1ccc(C(=O)N2C[C@H](Oc3nccc(C#N)c3C)CC[C@H]2C)c(-c2cccnc2)n1` [Example 82, 2-({(3R,6R)-1-[(6-methoxy-2,3′-bypyridin-3-yl)carbonyl]-6-methylpiperidin-3-yl}oxy)-3-methylpyridine-4-carbonitrile], the Ki at human orexin-2 receptor [1] was determined as 2.4 nM. Also, the IC50 on human orexin-2 receptor [2] amounted to 55.4 nM; on rat orexin-1 receptor, 8410 nM.
On to `COc1ccc(C(=O)N2C[C@H](Oc3nccc(C#N)c3OC)CC[C@H]2C)c(-n2nccn2)n1` [Example 104, 3-methoxy-2-{[(3R,6R)-1-{[6-methoxy-2-(2H-1,2,3-triazol-2-yl)pyridin-3-yl]carbonyl}-6-methylpiperidin-3-yl]oxy}pyridine-4-carbonitrile], for which the Ki on human orexin-2 receptor [1] turned out to be 2 nM. For the same molecule, the IC50 on human orexin-2 receptor [2] was 29 nM; on rat orexin-1 receptor, greater than 10000 nM.
For `C=Cc1ccc(C(=O)N2C[C@H](Oc3nccc(C#N)c3C)CC[C@H]2C)c(-n2nccn2)n1` [Example 90, 2-{[(3R,6R)-1-{[6-ethenyl-2-(2H-1,2,3-triazol-2-yl)pyridin-3-yl]carbonyl}-6-methylpiperidin-3-yl]oxy}-3-methylpyridine-4-carbonitrile], the Ki at human orexin-2 receptor [1] amounted to 12.9 nM. The values for the IC50 at human orexin-2 receptor [2] and on rat orexin-1 receptor were 88 nM and greater than 10000 nM, respectively.
Take `Cc1noc(-c2ccccc2C(=O)N2C[C@H](Oc3nccc(C#N)c3C)CC[C@H]2C)n1` [Example 58, 3-methyl-2-{[(3R,6R)-6-methyl-1-{[2-(3-methyl-1,2,4-oxadiazol-5-yl)phenyl]carbonyl}piperidin-3-yl]oxy}pyridine-4-carbonitrile]: the Ki on human orexin-2 receptor [1] was 0.5 nM. The IC50 at human orexin-2 receptor [2] worked out at 12 nM; at rat orexin-1 receptor, 733 nM.
The matching figures for `Cc1c(C#N)ccnc1O[C@@H]1CC[C@@H](C)N(C(=O)c2cc(F)ccc2-c2ccccn2)C1` [Example 56]: 1.4 nM, 30 nM and 2120 nM.
The matching figures for `Cc1c(C#N)ccnc1O[C@@H]1CC[C@@H](C)N(C(=O)c2ccccc2-c2cnn(C)c2)C1` [Example 36, 3-methyl-2-{[(3R,6R)-6-methyl-1-{[2-(1-methyl-1H-pyrazol-4-yl)phenyl]carbonyl}piperidin-3-yl]oxy}pyridine-4-carbonitrile]: 1.5 nM, 20 nM and 2380 nM.
Regarding `COc1c(C#N)ccnc1O[C@@H]1CC[C@@H](C)N(C(=O)c2ccccc2-c2ncccn2)C1` [Example 107, 3-methoxy-2-({(3R,6R)-6-methyl-1-[(2-pyrimidin-2-ylphenyl)carbonyl]piperidin-3-yl}oxy)pyridine-4-carbonitrile], the Ki on human orexin-2 receptor [1] is 0.4 nM. Besides, the IC50 is 33 nM at human orexin-2 receptor [2] and 2750 nM on rat orexin-1 receptor.
On to `Cc1c(C#N)ccnc1O[C@@H]1CC[C@@H](C)N(C(=O)c2ccc(Cl)nc2-n2nccn2)C1` [Example 72, 2-{[(3R,6R)-1-{[6-chloro-2-(2H-1,2,3-triazol-2-yl)pyridin-3-yl]carbonyl}-6-methylpiperidin-3-yl]oxy}-3-methylpyridine-4-carbonitrile], for which the Ki at human orexin-2 receptor [1] came to 3.5 nM. For the same molecule, the figures for the IC50 at human orexin-2 receptor [2] and at rat orexin-1 receptor were 75 nM and greater than 10000 nM, respectively.
Consider `Cc1c(C#N)ccnc1O[C@@H]1CC[C@@H](C)N(C(=O)c2ccccc2-n2nccn2)C1` [Example 1, 3-Methyl-2-{[(3R,6R)-6-methyl-1-{[2-(2H-1,2,3-triazol-2-yl)phenyl]carbonyl}piperidin-3-yl]oxy}pyridine-4-carbonitrile], for which the Ki at human orexin-2 receptor [1] is 0.4 nM. Also, the IC50 on human orexin-2 receptor [2] is 8 nM; on rat orexin-1 receptor it was 996 nM.
On to `COc1ccc(C(=O)N2C[C@H](Oc3nccc(C#N)c3C)CC[C@H]2C)c(N(C)C)n1` [Example 87, 2-{[(3R,6R)-1-{[2-(Dimethylamino)-6-methoxypyridin-3-yl]carbonyl}-6-methylpiperidin-3-yl]oxy}-3-methylpyridine-4-carbonitrile], for which the Ki on human orexin-2 receptor [1] came out at 9 nM. In addition, the IC50 on human orexin-2 receptor [2] is 69 nM; at rat orexin-1 receptor it was greater than 10000 nM.
Turning to `COc1c(C#N)ccnc1O[C@@H]1CC[C@@H](C)N(C(=O)c2cc(F)ccc2-n2nccn2)C1` [Example 99, 2-{[(3R,6R)-1-{[5-fluoro-2-(2H-1,2,3-triazol-2-yl)phenyl]carbonyl}-6-methylpiperidin-3-yl]oxy}-3-methoxypyridine-4-carbonitrile], the Ki on human orexin-2 receptor [1] turned out to be 0.4 nM. Besides, the IC50 was found to be 15 nM on human orexin-2 receptor [2] and 2430 nM on rat orexin-1 receptor.
For `CCOc1ncccc1C(=O)N1C[C@H](Oc2nccc(C#N)c2C)CC[C@H]1C` [Example 68] the same measures were 5.9 nM, 36 nM and greater than 10000 nM.
The matching figures for `Cc1cccc(-n2nccn2)c1C(=O)N1C[C@H](Oc2nccc(C#N)c2C)CC[C@H]1C` [Example 15, 3-methyl-2-{[(3R,6R)-6-methyl-1-{[2-methyl-6-(2H-1,2,3-triazol-2-yl)phenyl]carbonyl}piperidin-3-yl]oxy}pyridine-4-carbonitrile]: 0.2 nM, 12 nM and 693 nM.
For `Cc1c(C#N)ccnc1O[C@@H]1CC[C@@H](C)N(C(=O)c2cn(C)nc2-c2ccccc2)C1` [Example 45, 3-methyl-2-({(3R,6R)-6-methyl-1-[(1-methyl-3-phenyl-1H-pyrazol-4-yl)carbonyl]piperidin-3-yl}oxy)pyridine-4-carbonitrile] the same measures were 12.7 nM, 91 nM and 4960 nM.
As to `COc1c(C#N)ccnc1O[C@@H]1CC[C@@H](C)N(C(=O)c2ccccc2-n2nccn2)C1` [Example 96, 3-Methoxy-2-{[(3R,6R)-6-methyl-1-{[2-(2H-1,2,3-triazol-2-yl)phenyl]carbonyl}piperidin-3-yl]oxy}pyridine-4-carbonitrile], the Ki on human orexin-2 receptor [1] turned out to be 0.3 nM. The IC50 on human orexin-2 receptor [2] was determined as 9 nM; on rat orexin-1 receptor, 1260 nM.
For `Cc1nnn(-c2ccccc2C(=O)N2C[C@H](Oc3nccc(C#N)c3C)CC[C@H]2C)n1` [Example 40, 3-methyl-2-{[(3R,6R)-6-methyl-1-{[2-(5-methyl-2H-tetrazol-2-yl)phenyl]carbonyl}piperidin-3-yl]oxy}pyridine-4-carbonitrile] the same measures were 0.6 nM, 11 nM and 707 nM.
For `Cc1c(C#N)ccnc1O[C@@H]1CC[C@@H](C)N(C(=O)c2cc(F)cnc2-c2nccs2)C1` [Example 35, 2-{[(3R,6R)-1-{[5-fluoro-2-(1,3-thiazol-2-yl)pyridin-3-yl]carbonyl}-6-methylpiperidin-3-yl]oxy}-3-methylpyridine-4-carbonitrile] the same measures were 0.3 nM, 13 nM and 453 nM.
The matching figures for `COc1c(C#N)ccnc1O[C@@H]1CC[C@@H](C)N(C(=O)c2ccc(F)cc2-c2ncccn2)C1` [Example 110, 2-({(3R,6R)-1-[(4-fluoro-2-pyrimidin-2-ylphenyl)carbonyl]-6-methylpiperidin-3-yl}oxy)-3-methoxypyridine-4-carbonitrile]: 0.6 nM, 39 nM and 1240 nM.
On to `Cc1c(C#N)ccnc1O[C@@H]1CC[C@@H](C)N(C(=O)c2ccccc2Oc2ccccc2)C1` [Example 30, 3-methyl-2-({(3R,6R)-6-methyl-1-[(2-phenoxyphenyl)carbonyl]piperidin-3-yl}oxy)pyridine-4-carbonitrile], for which the Ki on human orexin-2 receptor [1] worked out at 2.3 nM. The IC50 at human orexin-2 receptor [2] was 46 nM; on rat orexin-1 receptor, greater than 10000 nM.
For `Cc1c(C#N)ccnc1O[C@@H]1CC[C@@H](C)N(C(=O)c2ccsc2-c2nccs2)C1` [Example 32, 3-methyl-2-{[(3R,6R)-6-methyl-1-{[2-(1,3-thiazol-2-yl)thiophen-3-yl]carbonyl}piperidin-3-yl]oxy}pyridine-4-carbonitrile] the same measures were 0.7 nM, 29 nM and 1880 nM.
For `Cc1c(C#N)ccnc1O[C@@H]1CC[C@@H](C)N(C(=O)c2ccc(F)cc2C2CC2)C1` [Example 53, 2-({(3R,6R)-1-[(2-cyclopropyl-4-fluorophenyl)carbonyl]-6-methylpiperidin-3-yl}oxy)-3-methylpyridine-4-carbonitrile] the same measures were 1.6 nM, 26 nM and 5780 nM.
The matching figures for `COc1ccc(C(=O)N2C[C@H](Oc3nccc(C#N)c3C)CC[C@H]2C)c(-c2ccccn2)n1` [Example 83, 2-({(3R,6R)-1-[(6-methoxy-2,2′-bypyridin-3-yl)carbonyl]-6-methylpiperidin-3-yl}oxy)-3-methylpyridine-4-carbonitrile]: 0.84 nM, 64.6 nM and 10000 nM.
With `COc1c(C#N)ccnc1O[C@@H]1CC[C@@H](C)N(C(=O)c2cc(C)ccc2-n2nccn2)C1` [Example 103, 3-methoxy-2-{[(3R,6R)-6-methyl-1-{[5-methyl-2-(2H-1,2,3-triazol-2-yl)phenyl]carbonyl}piperidin-3-yl]oxy}pyridine-4-carbonitrile], at human orexin-2 receptor [1], the Ki stood at 0.4 nM. The IC50 at human orexin-2 receptor [2] is 24 nM; at rat orexin-1 receptor, 1010 nM.
For `COc1c(C#N)ccnc1O[C@@H]1CC[C@@H](C)N(C(=O)c2cc(F)ccc2-c2ncccn2)C1` [Example 111, 2-({(3R,6R)-1-[(5-fluoro-2-pyrimidin-2-ylphenyl)carbonyl]-6-methylpiperidin-3-yl}oxy)-3-methoxypyridine-4-carbonitrile], the Ki on human orexin-2 receptor [1] is 0.3 nM. Moreover, the IC50 on human orexin-2 receptor [2] came out at 18 nM; on rat orexin-1 receptor, 945 nM.
